Measurements as given in US9567371B2, “Short beta-defensin-derived peptides” (Yeda Research and Development Co. Ltd., priority 2009, dated 2017).
Peptide text beside a SMILES is read from it.

Tests used:
C57BL/6 mice [1] = assay: Mobilization assay: hematopoietic progenitor cells (CFU from PB MNC); assay type: in vivo, mouse
Procedure: FIG. 3. Dose-response effect of TL-1 and AK-1 on mobilization of hematopoietic progenitor cells to peripheral blood. C57BL/6 mice were s.c. injected with 1, 5 or 10 mg/kg of TL-1 or AK-1. Control mice were injected with PBS. After 1-1.5 h, mice were sacrificed, peripheral blood mononuclear cells (PB MNC) were separated by Ficoll, seeded into the methylcellulose, and the number of colony-forming units (CFU) was estimated. Data shown are the number of CFU per 2×10^5 seeded PB MNC cells. Vertical bars represent standard deviation of duplicate experiments. *P<0.05 compared to control.
FIG. 5. TL-1 synergizes with G-CSF to mobilize hematopoietic progenitor cells to peripheral blood. C57BL/6 mice were s.c. injected with 5 mg/kg of AMD3100 (AMD), TL-1, AK-1, TL-1+AMD3100, or AK-1+AMD3100. Other mice were injected with G-CSF, alone or with TL-1 or AMD3100. Control mice were injected with PBS. After 1-1.5 h, mice were sacrificed, peripheral blood mononuclear cells (PB MNC) were separated by Ficoll, seeded into the methylcellulose, and the number of colony-forming units (CFU) was estimated. Data shown are the number of CFU per 2×10^5 seeded PB MNC cells. Vertical bars represent standard deviation of duplicate experiments. *P<0.05 compared to control.
C57BL/6 mice were injected s.c. with PBS (control), 5 mg/kg AMD3100, or one of the peptides TL-1, cyclic TL-1 and AK-1, at various doses. Another group of mice was s.c. injected with 5 mg/kg AMD3100 together with TL-1, or cyclic TL-1, or AK-1 (all peptides at 5 mg/kg), 1-1.5 hr before sacrifice. An additional group of mice was s.c. injected with-G-CSF at a dose of 5 μg/mouse once a day for 5 days. Mice were sacrificed 4 hrs post last G-CSF injection; 1-1.5 before sacrifice, mice were injected with TL-1, cyclic TL-1 or AK-1, all at 5 mg/kg. Peripheral blood (PB) was collected from mice by cardiac puncture into heparin containing tubes and the number of white blood cells (WBC) per 1 mL of blood was calculated. The tubes were centrifuged, plasma was collected and kept at −20° C. until tested. In order to evaluate the number of progenitor cells, PB mononuclear cells were isolated using Ficoll gradient centrifugation, and seeded (2×10^5 cells/plate) in methylcellulose with cytokines as described (Spiegel, A., et al., 2004, Goichberg, P., et al., 2006). Colonies, reflecting colony-forming units (CFU), were scored after 7 days.
In the same experiments, blood mononuclear cells were collected and tested for the presence of colony-forming cells reflecting the number of HPC.

CCR5 = CCR5 membrane expression (flow cytometry); assay type: cell-based, human; conditions: tested cells, 3 hrs preincubation
Procedure: FIGS. 10A-10C. TL-1 and cTL1 down-regulate CXCR4 expression on human cord blood CD34^+ and G2 cells. Human cord blood CD34^+ and G2 cells were incubated with 1 or 10 μM TL-1 or cyclic TL-1 for 3 hrs or left untreated (UT), washed, stained with CXCR4 and CCR5 Ab and analyzed by flow cytometry. Representative histograms from 3 separate experiments are shown. FIG. 10A—effect of TL-1 on CXCR4 expression. FIG. 10B—effect of cTL-1 on CXCR4 expression. FIG. 10C—effects of TL-1 and cTL-1 on CCR5 expression.
Various cell types (1×10^6/mL) were pretreated with the peptides for 3 hrs as described above, washed and then stained in staining buffer (PBS supplemented with 0.5% FCS and 0.01% sodium azide) with mouse anti-human CXCR4-PE, CCR5-FITC (R&D Systems, Minneapolis, Minn.) or CD45-FITC (ImmunoQuality Products, Groningen, The Netherlands) mAbs for 30 min at 4° C. and analyzed by flow cytometry as described (Kalinkovich, A., et al., 2006). Appropriate IgG were used as the isotype controls.
Recently, it has been shown that HBD3 could induce internalization of CXCR4 but not of CCR5 in the CEM T cells expressing both CXCR4 and CCR5 (Feng, Z. et al., 2006) implying CXCR4 specificity in HBD3 action.

C57BL/6 mice [2] = assay: Mobilization assay: WBC number in peripheral blood; assay type: in vivo, mouse
Procedure: FIG. 2. Dose-response effect of TL-1 and AK-1 on mobilization of WBC. C57BL/6 mice were s.c. injected with 1, 5 or 10 mg/kg of TL-1 or AK-1. Control mice were injected with phosphate buffered saline (PBS). After 1-1.5 h, mice were sacrificed and WBC number in the PB was calculated. Data shown are the mean±SD of 3 separate experiments. *P<0.05 compared to control.
FIG. 4. TL-1 synergizes with G-CSF to mobilize WBC. C57BL/6 mice were s.c. injected with G-CSF 2.5 μg/twice a day for four days. Eighteen hrs after the last injection mice were s.c. injected with 5 mg/kg of either TL-1, AK-1 or AMD3100 (AMD), sacrificed 1.5 h later, and the number of WBC was calculated. Control mice were injected with PBS or with TL-1, AK-1 or AMD3100 without pre-treatment with G-CSF. […]
C57BL/6 mice were injected s.c. with PBS (control), 5 mg/kg AMD3100, or one of the peptides TL-1, cyclic TL-1 and AK-1, at various doses. […] Peripheral blood (PB) was collected from mice by cardiac puncture into heparin containing tubes and the number of white blood cells (WBC) per 1 mL of blood was calculated. […] Colonies, reflecting colony-forming units (CFU), were scored after 7 days.
The cell mobilizing potential of the peptides was examined in intact C57BL/6 mice, using the protocol applied for AMD3100 (Broxmeyer, H. E., et al., 2005). First, the effect of different doses of the peptides was evaluated. […]

N=C(N)NCCC[C@@H]1NC(=O)CNC(=O)[C@H](CCCNC(=N)N)NC(=O)[C@H](CCCCN)NC(=O)[C@H](CCCCN)NC(=O)[C@H](CCCNC(=N)N)NC(=O)[C@H](CCCNC(=N)N)NC(=O)[C@H](CS)NC(=O)[C@H](CS)NC(=O)[C@H](CCCCN)NC1=O [cyclic TL-1, 1,10-cyclo[RGRKCCRRKK]] (cyclo(CCRRKKRGRK))
HPC mobilization (colony-forming cells) (C57BL/6 mice [1]; 1 mg/kg s.c.): did not induce mobilization of HPC | HPC mobilization in combination with AMD3100 (C57BL/6 mice [1]; 5 mg/kg each): inhibited AMD3100-induced mobilization | HPC mobilization, peptide alone in the comparison/combination experiments (C57BL/6 mice [1]; 5 mg/kg s.c.): inhibitory effect | HPC mobilization (colony-forming cells) (C57BL/6 mice [1]; 5 mg/kg s.c., dose response experiments): did not induce mobilization of HPC | HPC mobilization (colony-forming cells) (C57BL/6 mice [1]; 10 mg/kg s.c.): inhibitory effect | membrane expression of CCR5 (CCR5): either unaffected or slightly increased | WBC mobilization upon simultaneous injection with AMD3100 (C57BL/6 mice [2]; 5 mg/kg s.c. each): decreased its mobilizing capacity | WBC mobilization, dose response (C57BL/6 mice [2]; all tested doses: 1, 5 and 10 mg/kg s.c.): did not induce WBC mobilization
